This assay has as its target T1, human GPR119 (Homo sapiens, UniProt Q8TDV5).
T1 construct: expressed in transfected cells
T1 sequence (Q8TDV5 1-335): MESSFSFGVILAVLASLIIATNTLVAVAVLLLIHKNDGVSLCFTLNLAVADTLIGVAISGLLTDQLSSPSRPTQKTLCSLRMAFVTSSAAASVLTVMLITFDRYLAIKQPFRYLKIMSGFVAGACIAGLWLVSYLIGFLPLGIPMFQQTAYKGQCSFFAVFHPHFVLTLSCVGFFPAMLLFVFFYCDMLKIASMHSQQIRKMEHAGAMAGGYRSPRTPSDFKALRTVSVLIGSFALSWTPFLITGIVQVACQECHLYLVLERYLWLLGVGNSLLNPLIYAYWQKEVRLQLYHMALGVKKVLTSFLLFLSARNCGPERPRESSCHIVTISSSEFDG
Briefly: Functional cellular assay measuring GPR119-mediated cAMP release (HTRF) in HEK-293 cells stably expressing recombinant human GPR119. It counts as cell-based. The following applies: cAMP response, cell line expressing human GPR119, 30 minutes at room temperature. Put shortly: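 HEK-293 cells stably expressing recombinant human GPR119, suspended at 400000 cells/mL in HBSS/20 mM HEPES/0.1% BSA/2 mM IBMX, exposed to compound for 30 minutes at room temperature. cAMP detected by HTRF (665/620 nm ratio) after 1 h with reagents in lysis buffer. EC50 taken as concentration giving 50% of maximal activation.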
On the technique in general: TR-FRET usually uses a lanthanide donor and a delayed reading to cut background.

EC50 data for twelve molecules are collected here from patent US9908868B2, “Isoindolinone compounds as GPR119 modulators for the treatment of diabetes, obesity, dyslipidemia and related disorders” (SANOFI, priority 2014, dated 2018).

The structures appear in SMILES notation.

`CCN(CC)C(=O)CN1Cc2ccc(N3CC[C@@H](Oc4ccc(OCC(F)(F)F)nc4)C3=O)cc2C1=O` [Example 4-41, N,N-diethyl-2-[1-oxo-6-[(3R)-2-oxo-3-[[6-(2,2,2-trifluoroethoxy)-3-pyridyl]oxy]pyrrolidin-1-yl]isoindolin-2-yl]acetamide]: the 50% effective concentration (EC50) (commonly the midpoint of the concentration-response curve) stood at 40 nM.

Take `O=C(CN1Cc2ccc(N3CC[C@@H](Oc4ccc(OCC(F)(F)F)nc4)C3=O)cc2C1=O)N1CCC1` [Example 4-42, 2-[2-(azetidin-1-yl)-2-oxo-ethyl]-6-[(3R)-2-oxo-3-[[6-(2,2,2-trifluoroethoxy)-3-pyridyl]oxy]pyrrolidin-1-yl]isoindolin-1-one]: the EC50 amounted to 39 nM. Next, `CCOc1ccc(O[C@@H]2CCN(c3cc(F)c4c(c3)C(=O)N(CC#N)C4)C2=O)cn1` [Example 5-01, 2-[6-[(3R)-3-[(6-ethoxy-3-pyridyl)oxy]-2-oxo-pyrrolidin-1-yl]-4-fluoro-1-oxo-isoindolin-2-yl]acetonitrile]: 67 nM; `CCOc1ccc(O[C@@H]2CCN(c3cc(F)c4c(c3)C(=O)N(CC(=O)O)C4)C2=O)cn1` [Example 5-02, 2-[6-[(3R)-3-[(6-ethoxy-3-pyridyl)oxy]-2-oxo-pyrrolidin-1-yl]-4-fluoro-1-oxo-isoindolin-2-yl]acetic acid]: 6080 nM. For `CC1(CN2Cc3c(F)cc(N4CC[C@@H](Oc5ccc(OCCC6CC6)nc5)C4=O)cc3C2=O)COC1` [Example 5-03, 6-[(3R)-3-[[6-(2-cyclopropylethoxy)-3-pyridyl]oxy]-2-oxo-pyrrolidin-1-yl]-4-fluoro-2-[(3-methyloxetan-3-yl)methyl]isoindolin-1-one], the EC50 worked out at 2530 nM. With `CN1Cc2c(F)cc(N3CC[C@@H](Oc4ccc(OCCC5CC5)nc4)C3=O)cc2C1=O` [Example 5-04, 6-[(3R)-3-[[6-(2-cyclopropylethoxy)-3-pyridyl]oxy]-2-oxo-pyrrolidin-1-yl]-4-fluoro-2-methyl-isoindolin-1-one] the figure was 1240 nM; with `CC(C)N1Cc2c(F)cc(N3CC[C@@H](Oc4ccc(OCCC5CC5)nc4)C3=O)cc2C1=O` [Example 5-05, 6-[(3R)-3-[[6-(2-cyclopropylethoxy)-3-pyridyl]oxy]-2-oxo-pyrrolidin-1-yl]-4-fluoro-2-isopropyl-isoindolin-1-one], 5040 nM; with `O=C1c2cc(N3CC[C@@H](Oc4ccc(OCCC5CC5)nc4)C3=O)cc(F)c2CN1CCCO` [Example 5-06, 6-[(3R)-3-[[6-(2-cyclopropylethoxy)-3-pyridyl]oxy]-2-oxo-pyrrolidin-1-yl]-4-fluoro-2-(3-hydroxypropyl)isoindolin-1-one], 609 nM. Next, `CN(C)C(=O)CN1Cc2c(F)cc(N3CC[C@@H](Oc4ccc(OCC(F)(F)F)nc4)C3=O)cc2C1=O` [Example 6-01, 2-[4-fluoro-1-oxo-6-[(3R)-2-oxo-3-[[6-(2,2,2-trifluoroethoxy)-3-pyridyl]oxy]pyrrolidin-1-yl]isoindolin-2-yl]-N,N-dimethyl-acetamide]: 77 nM; `CN(C)C(=O)CN1Cc2c(F)cc(N3CC[C@@H](Oc4ccc(OCC(C)(C)C)nc4)C3=O)cc2C1=O` [Example 6-02, 2-[6-[(3R)-3-[[6-(2,2-dimethylpropoxy)-3-pyridyl]oxy]-2-oxo-pyrrolidin-1-yl]-4-fluoro-1-oxo-isoindolin-2-yl]-N,N-dimethyl-acetamide]: 126 nM. Next, `C=CCOc1ccc(O[C@@H]2CCN(c3cc(F)c4c(c3)C(=O)N(CC(=O)N(C)C)C4)C2=O)cn1` [Example 6-03, 2-[6-[(3R)-3-[(6-allyloxy-3-pyridyl)oxy]-2-oxo-pyrrolidin-1-yl]-4-fluoro-1-oxo-isoindolin-2-yl]-N,N-dimethyl-acetamide]: 64 nM; `CN(C)C(=O)CN1Cc2c(F)cc(N3CC[C@@H](Oc4ccc(OCC5CCC5)nc4)C3=O)cc2C1=O` [Example 6-04, 2-[6-[(3R)-3-[[6-(cyclobutylmethoxy)-3-pyridyl]oxy]-2-oxo-pyrrolidin-1-yl]-4-fluoro-1-oxo-isoindolin-2-yl]-N,N-dimethyl-acetamide]: 35 nM.
